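A five-concentration, 48-hour dose response in 96-well plates underlies each endpoint, interpolated linearly between surrounding concentrations. At the GI50, growth is halved.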 Calls of active or inactive are those of the source. Rule as the data show it: active = GI50 up to about 1.1 µM and inactive = higher.
Key:
Assay in all cases: NCI tumour cell line growth inhibition, 48 h
A498 = tested on: A498
ACHN = tested on: ACHN
EKVX = tested on: EKVX
HCT-116 = tested on: HCT-116
HCT-15 = tested on: HCT-15
KM12 = tested on: KM12
MOLT-4 = tested on: MOLT-4
Malme-3M = tested on: Malme-3M
NCI-H226 = tested on: NCI-H226
NCI-H23 = tested on: NCI-H23
SF-295 = tested on: SF-295
SK-MEL-5 = tested on: SK-MEL-5
SR = tested on: SR
SW-620 = tested on: SW-620
UACC-62 = tested on: UACC-62
UO-31 = tested on: UO-31
CAKI-1 = tested on: CAKI-1
RXF 393 = tested on: RXF 393

SMILES	GI50 (A498)	GI50 (ACHN)	GI50 (EKVX)	GI50 (HCT-116)	GI50 (HCT-15) [µM]	GI50 (KM12)	GI50 (MOLT-4)	GI50 (Malme-3M)	GI50 (NCI-H226)	GI50 (NCI-H23)	GI50 (SF-295)	GI50 (SK-MEL-5)	GI50 (SR)	GI50 (SW-620)	GI50 (UACC-62)	GI50 (UO-31)	GI50 (CAKI-1)	GI50 (RXF 393)
CCN1CCC(O)(/C=C/c2ccc(Cl)cc2)C(C(=O)/C=C/c2ccc(Cl)cc2)C1 (stereo not given)	17.3 µM (inactive)	33 µM (inactive)	43.9 µM (inactive)	3.63 µM (inactive)	21.7	15.2 µM (inactive)	23.9 µM (inactive)	> 100 µM (inactive)	20.8 µM (inactive)	20.2 µM (inactive)	20.6 µM (inactive)	13.5 µM (inactive)	34.5 µM (inactive)	21.2 µM (inactive)	17.3 µM (inactive)	31.3 µM (inactive)		
COc1cc2c(c(OC)c1OC)-c1ccc(OC)c(=O)cc1[C@@H](N(C)C=O)CC2	0.0209 µM (active)	0.0802 µM (active)	9.2 µM (inactive)	0.0173 µM (active)	0.0752	< 0.01 µM (active)	0.0212 µM (active)	0.0184 µM (active)	0.162 µM (active)	0.0168 µM (active)	0.0146 µM (active)	< 0.01 µM (active)		0.0134 µM (active)	0.0177 µM (active)	0.752 µM (active)	0.0304 µM (active)	0.0161 µM (active)
CC1(C(=O)O)CCOc2ccccc21 (stereo not given)	> 100 µM (inactive)	> 100 µM (inactive)	> 100 µM (inactive)	> 100 µM (inactive)	> 100		> 100 µM (inactive)	> 100 µM (inactive)	> 100 µM (inactive)	> 100 µM (inactive)	> 100 µM (inactive)	> 100 µM (inactive)	> 100 µM (inactive)	> 100 µM (inactive)	> 100 µM (inactive)	> 100 µM (inactive)	> 100 µM (inactive)	> 100 µM (inactive)
COc1ccc(NC(=O)C2C(=O)N(c3ccc(OC)cc3)C(=O)/C2=N\N)cc1 (stereo not given)	> 100 µM (inactive)	> 100 µM (inactive)	> 100 µM (inactive)	> 100 µM (inactive)	> 100	> 100 µM (inactive)	> 100 µM (inactive)	> 100 µM (inactive)		> 100 µM (inactive)	> 100 µM (inactive)	> 100 µM (inactive)	> 100 µM (inactive)	> 100 µM (inactive)	> 100 µM (inactive)	> 100 µM (inactive)		> 100 µM (inactive)
Cc1cccc2c1Oc1cc(Cl)ccc1C2NC(=O)CN(C)C (stereo not given)		22.8 µM (inactive)	26.5 µM (inactive)	27.5 µM (inactive)	45.2		29.2 µM (inactive)		99.8 µM (inactive)	92 µM (inactive)		21.6 µM (inactive)	31.4 µM (inactive)	66.4 µM (inactive)	24.3 µM (inactive)	28.8 µM (inactive)		26.5 µM (inactive)
CC(C)CCC[C@@H](C)[C@H]1CC[C@H]2[C@@H]3CC=C4CC(OCCCCN(O)CCCSC5OC(CO)C(O)C(O)C5O)CC[C@]4(C)[C@H]3CC[C@]12C (stereo not given in full)	> 100 µM (inactive)	> 100 µM (inactive)	> 100 µM (inactive)	56.1 µM (inactive)	43.4	33.5 µM (inactive)	34 µM (inactive)			45.2 µM (inactive)	> 100 µM (inactive)	70.5 µM (inactive)	34.7 µM (inactive)	22.6 µM (inactive)	> 100 µM (inactive)	> 100 µM (inactive)	> 100 µM (inactive)	79.3 µM (inactive)
CN(C)c1nc(N(C)c2ccccc2)[s+]s1	50.8 µM (inactive)	> 100 µM (inactive)	> 100 µM (inactive)	41.7 µM (inactive)	54.3	36.3 µM (inactive)		60.4 µM (inactive)	99.8 µM (inactive)	65.6 µM (inactive)	78.3 µM (inactive)	36.5 µM (inactive)		> 100 µM (inactive)	12.3 µM (inactive)	99.1 µM (inactive)	> 100 µM (inactive)	> 100 µM (inactive)
Cc1c(Cl)cccc1NC(=O)CC1C(=O)Nc2ccccc2S1(=O)=O (stereo not given)	15.3 µM (inactive)	16.5 µM (inactive)	25.6 µM (inactive)	15.8 µM (inactive)	10.3		7.83 µM (inactive)	17.6 µM (inactive)	16.9 µM (inactive)	18.1 µM (inactive)	19.7 µM (inactive)	12.2 µM (inactive)	10.5 µM (inactive)	20 µM (inactive)	7.52 µM (inactive)	17.1 µM (inactive)	19.9 µM (inactive)	14.7 µM (inactive)
Cc1ccc([N+](=O)[O-])cc1NC(=O)C(=O)Cc1cc(=O)oc2cc(O)ccc12	> 100 µM (inactive)	> 100 µM (inactive)	> 100 µM (inactive)	24.2 µM (inactive)	> 100	> 100 µM (inactive)	> 100 µM (inactive)	> 100 µM (inactive)	> 100 µM (inactive)	> 100 µM (inactive)	> 100 µM (inactive)	> 100 µM (inactive)	32.4 µM (inactive)		> 100 µM (inactive)	> 100 µM (inactive)	> 100 µM (inactive)	28.1 µM (inactive)
COc1cc2c(c(OC)c1OC)-c1ccc(SC)c(=O)cc1[C@@H](NC(=O)c1ccc(C#N)cc1)CC2	< 0.01 µM (active)	< 0.01 µM (active)	< 0.01 µM (active)	< 0.01 µM (active)	< 0.01	< 0.01 µM (active)	< 0.01 µM (active)	< 0.01 µM (active)	< 0.01 µM (active)	< 0.01 µM (active)	< 0.01 µM (active)	< 0.01 µM (active)	< 0.01 µM (active)	< 0.01 µM (active)	< 0.01 µM (active)	< 0.01 µM (active)		< 0.01 µM (active)
C/C=C(\C)c1cc(O)c(C)c2c1Oc1cc(O)c(Cl)c(C)c1C(=O)O2		22.2 µM (inactive)	26.8 µM (inactive)	> 10 µM (inactive)		20.9 µM (inactive)			18.5 µM (inactive)	18.9 µM (inactive)	16.7 µM (inactive)	13.9 µM (inactive)	23.8 µM (inactive)	19.6 µM (inactive)		13.5 µM (inactive)	27.4 µM (inactive)	18.8 µM (inactive)
CC(=O)OCCOCNC(=S)N/N=C/c1ccc2ccccc2n1	> 100 µM (inactive)	23 µM (inactive)	32.7 µM (inactive)	42.2 µM (inactive)	29.8	55.7 µM (inactive)	> 100 µM (inactive)	55.5 µM (inactive)	> 100 µM (inactive)	73.1 µM (inactive)	44.6 µM (inactive)	23.9 µM (inactive)	24.8 µM (inactive)	36.1 µM (inactive)	21.8 µM (inactive)	31.2 µM (inactive)		46.2 µM (inactive)
O=C(CSc1nc(-c2ccccc2)c(-c2ccccc2)[nH]1)N/N=C/c1ccc([N+](=O)[O-])cc1	14 µM (inactive)	26.7 µM (inactive)		18.7 µM (inactive)	14	17.3 µM (inactive)	18.6 µM (inactive)	18.4 µM (inactive)	13.6 µM (inactive)	14.7 µM (inactive)	19.8 µM (inactive)	17.3 µM (inactive)	30.9 µM (inactive)			14.7 µM (inactive)		

— ChEMBL document CHEMBL1201862, “PubChem BioAssay data set” (2004)
